Experimental findings from patent US8334316B2, “Substituted organosulfur compounds and methods of using thereof” (ACEA Biosciences, Inc., priority 2004, dated 2012) are described below.

Data set [1] has as its system Bcap-37 human breast cancer. As to the kind of experiment: Bcap-37 human breast cancer xenograft in nude mice, dosing from day 7 when tumors palpable (Example 5). It is filed as in vivo. The settings on record: for Tumor Inhibition Rate C − T/C %: based on tumor weight; for Tumor Volume (g) X ± SD: end of study. The method, then: Only female mice were used in this study. […] The high, middle and low doses of ACEA100108 were 50, […] and 8 mg/kg/d, respectively.
Preparation and Administration of Test Compounds. […] Seven days after the tumor transplantation, the transplanted tumors grew to size sufficiently large that could be felt by hands when one touched the animal. […] The high, middle and low dose of ACEA100108 was 50, 20 and 8 mg/kg, respectively.
About seven days after the transplantation, tumors in the mice grew sufficiently large so that tumor could be felt by hands when one touched the animals.
For the human breast cancer xenograft model, all used materials, including animal food, animal cage, supporting materials and apparatus contacted by animals, were high-pressure sterilized. Nude mice were maintained in laminar flow shelves under SPF condition. After tumor transplantation, mouse weight and tumor size in each compound dosage group were dynamically monitored and recorded. The tumors size was determined by measuring the major axis (a) and minor axis (b) of the tumor, and tumor volume was calculated according to the equation (3) in Example 3.
In general terms: In xenograft studies the graft and the host belong to different species.

Data set [2] relates to A549 human lung cancer cells. As to the kind of experiment: Apoptosis: Annexin V-Cy3 / 6-CFDA staining of A549 cells. It is filed as cell-based. Particulars: 24 hrs. The procedure: The cells were incubated with the drugs for 24 hours and then washed 2× with PBS and 3× with binding buffer (10 mM HEPES, pH 7.5, 140 mM NaCl, 2.5 mM CaCl2). […] The cells were gently washed 3× in 1× binding buffer, mounted, viewed under immunofluorescent microscope and imaged using an attached CCD camera. Note that live cells show staining only with 6-CFDA (green), while necrotic cells will stain only with Annexin V-Cy3 (red). Cells starting the apoptotic process will stain both with AnnexinV-Cy3 and 6-CFDA.

The subject of data set [3] is human cancer cell lines (H460, MV522, MCF7, A549, PC3, A431, HT1080, MDA-231, HT29, HCC2998, OVCAR4, A2780). The experiment in a line: RT-CES system, panel of human cancer cell lines treated with dibenzyl trisulfide. Particulars: 1.5625-100 μM; FIGS. 1-5, 6A, 7-12. Type of data set: cell-based. The text has this: The RT-CES system comprises three components, an electronic sensor analyzer, a device station and 16× or 96× microtiter plate devices. Microelectrode sensor array was fabricated on glass slides with lithographical microfabrication methods and the electrode-containing slides are assembled to plastic trays to form electrode-containing wells. Each 16× (or 96×) microtiter plate device used in RT-CES system comprises up to 16 (or 96) such electrode-containing wells. The device station receives the 16× or 96× microtiter plate devices and is capable of electronically switching any one of the wells to the sensor analyzer for impedance measurement. […] Under the RT-CES software control, the sensor analyzer can automatically select wells to be measured and continuously conduct impedance measurements. The impedance data from the analyzer is transferred to a computer, analyzed and processed by the integrated software.
To quantify cell status based on the measured cell-electrode impedance, a parameter termed Cell Index is derived, according to
[formula] where Rb(f) and Rcell(f) are the frequency dependent electrode resistances (a component of impedance) without cells or with cell present, respectively. N is the number of the frequency points at which the impedance is measured. Thus, Cell Index is a quantitative measure of the status of the cells in an electrode-containing well. […]

Structures are written as SMILES. Values joined by “and” are separate entries in the source; they are usually repeats but may differ in a detail not shown here. Equal entries are not always repeated. Marks after values point to notes of the source that are not given here.

Turning to `Fc1ccc(CSSSCc2ccc(F)cc2)cc1` [ACEA100108, Di(p-fluorobenzyl)trisulfide], the “Body weight of mice” value in data set [1] (8 mg/kg iv x7 qd, 0 d (beginning)) was 18.5 g and 18.5 ± 1 g; in data set [1] (8 mg/kg iv x7 qd, 7 d) it was 19.8 ± 1.5 g; in data set [1] (8 mg/kg iv x7 qd, 14 d) it was 21.7 ± 1.4 g; in data set [1] (8 mg/kg iv x7 qd, 21 d), 23.2 ± 1.5 g; in data set [1] (8 mg/kg iv x7 qd, 24 d (end)) it was 24.0 g and 24 ± 1.4 g; in data set [1] (20 mg/kg iv x7 qd, 0 d (beginning)) it was 18.8 ± 1.2 g. In addition, the “Body weight of mice” value in data set [1] (20 mg/kg iv x7 qd, 7 d) is 19.5 ± 1 g; in data set [1] (20 mg/kg iv x7 qd, 14 d), 21.2 ± 1.5 g; in data set [1] (20 mg/kg iv x7 qd, 21 d), 22.3 ± 1.6 g; in data set [1] (20 mg/kg iv x7 qd, 24 d (end)) it was 24.3 g and 24.3 ± 0.8 g; in data set [1] (50 mg/kg iv x7 qd, 0 d (beginning)), 18.2 g and 18.2 ± 1.2 g; in data set [1] (50 mg/kg iv x7 qd, 7 d) it was 19.3 ± 1 g. In addition, the “Body weight of mice” value was 20.7 ± 1.2 g in data set [1] (50 mg/kg iv x7 qd, 14 d); 21.8 ± 1.5 g in data set [1] (50 mg/kg iv x7 qd, 21 d); 22.8 g and 22.8 ± 1.5 g in data set [1] (50 mg/kg iv x7 qd, 24 d (end)); 18.8 g and 18.8 ± 1 g in data set [1] (50 mg/kg iv x10 qd, 0 d (beginning)); 19.7 ± 1 g in data set [1] (50 mg/kg iv x10 qd, 7 d); 20.3 ± 1.4 g in data set [1] (50 mg/kg iv x10 qd, 14 d). The “Body weight of mice” value was 21.5 ± 1.8 g in data set [1] (50 mg/kg iv x10 qd, 21 d); 21.2 g and 21.2 ± 1.2 g in data set [1] (50 mg/kg iv x10 qd, 24 d (end)). Also, the “Mice with palpable tumor / total mice” value in data set [1] (8 mg/kg iv x7 qd, 7 d) was 6/6††; in data set [1] (20 mg/kg iv x7 qd, 7 d), 6/6††; in data set [1] (50 mg/kg iv x7 qd, 7 d) it was 6/6††; in data set [1] (50 mg/kg iv x10 qd, 7 d) it was 6/6††. The “Tumor volume (cm^3)” value is 0.01 cm^3 in data set [1] (8 mg/kg iv x7 qd, 7 d after transplantation (start of dosing)); 0.107 ± 0.02 cm^3 in data set [1] (8 mg/kg iv x7 qd, 14 d); 0.27 ± 0.03 cm^3 in data set [1] (8 mg/kg iv x7 qd, 21 d); 0.962 ± 0.23 cm^3 in data set [1] (8 mg/kg iv x7 qd, 24 d); 0.01 cm^3 in data set [1] (20 mg/kg iv x7 qd, 7 d after transplantation (start of dosing)); 0.087 ± 0.01 cm^3 in data set [1] (20 mg/kg iv x7 qd, 14 d). Further, the “Tumor volume (cm^3)” value stood at 0.23 ± 0.04 cm^3 in data set [1] (20 mg/kg iv x7 qd, 21 d); 0.74 ± 0.18 cm^3 in data set [1] (20 mg/kg iv x7 qd, 24 d); 0.01 cm^3 in data set [1] (50 mg/kg iv x7 qd, 7 d after transplantation (start of dosing)); 0.049 ± 0.02 cm^3 in data set [1] (50 mg/kg iv x7 qd, 14 d); 0.169 ± 0.03 cm^3 in data set [1] (50 mg/kg iv x7 qd, 21 d); 0.485 ± 0.06 cm^3 in data set [1] (50 mg/kg iv x7 qd, 24 d). In addition, the “Tumor volume (cm^3)” value in data set [1] (50 mg/kg iv x10 qd, 7 d after transplantation (start of dosing)) is reported as 0.01 cm^3; in data set [1] (50 mg/kg iv x10 qd, 14 d) it was 0.048 ± 0.03 cm^3; in data set [1] (50 mg/kg iv x10 qd, 21 d), 0.114 ± 0.02 cm^3; in data set [1] (50 mg/kg iv x10 qd, 24 d) it was 0.28 ± 0.04 cm^3. Further, the “Tumor Volume Inhibition T/C %” value was 53.38% in data set [1] (8 mg/kg/d iv x7 qd), 41.06% in data set [1] (20 mg/kg/d iv x7 qd), 26.91% in data set [1] (50 mg/kg/d iv x7 qd) and 15.53% in data set [1] (50 mg/kg/d iv x10 qd). The “Tumor weight” value in data set [1] (8 mg/kg/d iv x7 qd) amounted to 1.12 ± 0.18 g; in data set [1] (20 mg/kg/d iv x7 qd), 0.822 ± 0.12 g; in data set [1] (50 mg/kg/d iv x7 qd) it was 0.745 ± 0.10 g; in data set [1] (50 mg/kg/d iv x10 qd), 0.672 ± 0.10 g. The “Tumor Inhibition Rate C − T/C %” value in data set [1] (8 mg/kg/d iv x7 qd) came out at 28.21%; in data set [1] (20 mg/kg/d iv x7 qd), 47.31%; in data set [1] (50 mg/kg/d iv x10 qd) it was 56.92%. The “Tumor Volume (g) X ± SD” value in data set [1] (8 mg/kg/d iv x7 qd) is recorded as 0.962 ± 0.23*** cm^3; in data set [1] (20 mg/kg/d iv x7 qd), 0.740 ± 0.18*** cm^3; in data set [1] (50 mg/kg/d iv x7 qd) it was 0.485 ± 0.06*** cm^3; in data set [1] (50 mg/kg/d iv x10 qd) it was 0.280 ± 0.04*** cm^3. Further, the “Annexin V staining (apoptosis)” value in data set [2] (1 uM) is given as “strong staining of Annexin V”.

`c1ccc(CSSSCc2ccccc2)cc1` [DBTS, Dibenzyl trisulfide]: the “Effect on proliferation of cancer cell lines (time-dependent cell index)” value in data set [3] is given as “exhibited inhibitory effect on the proliferation of a number of cancer cell lines”.

Regarding `CC(=O)O[C@H]1C(=O)[C@@]2(C)[C@H]([C@H](OC(=O)c3ccccc3)[C@]3(O)C[C@H](OC(=O)[C@H](O)[C@@H](NC(=O)c4ccccc4)c4ccccc4)C(C)=C1C3(C)C)[C@]1(OC(C)=O)CO[C@@H]1C[C@@H]2O` [Taxol, paclitaxel, reference compound], the “Body weight of mice” value was 18.8 g and 18.8 ± 1 g in data set [1] (10 mg/kg iv x7 qd, 0 d (beginning)); 20.5 ± 1 g in data set [1] (10 mg/kg iv x7 qd, 7 d). In data set [1] (10 mg/kg iv x7 qd, 7 d), the “Mice with palpable tumor / total mice” value is reported as 6/6††. Further, the “Tumor volume (cm^3)” value in data set [1] (10 mg/kg iv x7 qd, 7 d after transplantation (start of dosing)) is on record as 0.01 cm^3; in data set [1] (10 mg/kg iv x7 qd, 14 d), 0.103 ± 0.02 cm^3; in data set [1] (10 mg/kg iv x7 qd, 21 d) it was 0.283 ± 0.05 cm^3; in data set [1] (10 mg/kg iv x7 qd, 24 d) it was 0.799 ± 0.23 cm^3. The “Tumor Volume Inhibition T/C %” value in data set [1] (10 mg/kg/d iv x7 qd) amounted to 44.33%. For the same compound, the “Tumor weight” value in data set [1] (10 mg/kg/d iv x7 qd) was determined as 0.92 ± 0.07 g. In addition, the “Tumor Inhibition Rate C − T/C %” value in data set [1] (10 mg/kg/d iv x7 qd) worked out at 41.03%. Also, in data set [2] (50 nM), the “Annexin V staining (apoptosis)” value is on record as “strong staining of Annexin V”.
